Series [1] is described as follows: Pharmacokinetic study in ICR (CD-1) mice. In kind it is in vivo. To be noted: male ICR (CD-1) mice, tail vein 1 mg/kg, oral 3 mg/kg groups, plasma; for half-life: mouse, read-out: Half-life t1/2 (converted). How it is done: ICR (CD-1) male mice, 3 mice per group. One group of mice was injected with the compound to be tested via the tail vein at a dose of 1 mg/kg. The other group of mice was administered the compound to be tested via single-dose oral administration at a dose of 3 mg/kg. In the tail vein injection group, blood was collected from the saphenous vein at 5 minutes, 15 minutes, 30 minutes, 1 hour, 2 hours, 4 hours, 8 hours, and 24 hours post-administration. In the single-dose oral administration group, blood was collected at 15 minutes, 30 minutes, 1 hour, 2 hours, 4 hours, 8 hours, and 24 hours post-administration. The collected blood was placed in an EDTA-K2 anticoagulant tube, and 30 μL of whole blood was collected at each time point. Immediately after collection, blood samples were placed on wet ice for centrifugation. Samples would be centrifuged (maintained at 4600 rpm for 5 minutes at 4° C.) within 30 minutes to obtain plasma. The plasma sample was placed into a test tube (a target of 12 to 20 μL) for analysis. […] of plasma was added with 5 μL of MeOH, then added with 200 μL of MeOH/ACN solution containing 5 ng/mL of ISTD (Terfenadine), mixed well with shaking, and centrifuged at 4000 rpm for 15 minutes. The supernatant was diluted 5-fold with MeOH/water (1:1, v/v, 0.1% FA), and loaded to LC-MS/MS for quantification of plasma concentration by analytical methods and calculation of pharmacokinetic parameters.

The next series concerns MDA-MB-436 cells. Nature of the series: Proliferation activity assay of MDA-MB-436 cells (CellTiter-Glo). In kind it is cell-based. To be noted: 4000 cells seeded, 6 days incubation, read-out: MDA-MB-436 proliferation inhibition IC50. The protocol:
Complete culture medium was prepared and mixed thoroughly. The cells were resuscitated and cultured for about two passages to select a cell line in good growth condition. The cell culture flask was removed from the incubator. Cell adherence: the culture medium was aspirated, then the cells were washed once with trypsin to discard the waste liquid, and 3 mL of fresh trypsin was added to the culture flask for digestion. When the cells were loose to be detached from the wall of the flask, 8 mL of complete culture medium was added thereto to stop trypsin digestion and mixed gently. The cell suspension was transferred to a centrifuge tube with a pipette and centrifuged at 1000 rpm for 5 minutes. The supernatant was discarded. An appropriate volume of culture medium was added to the centrifuge tube and pipetted gently to resuspend the cells evenly. The cells were counted using a Vi-Cell XR cell counter. The cell suspension was adjusted to an appropriate concentration. The cell suspension was added to a 96-well plate at 100 µL/well. The details such as cell name, seeding density, and date were labelled, and the culture plate was placed in a CO2 incubator overnight.
The compound to be tested was prepared into a 10 mM stock solution, which was aliquoted and stored in a −20° C. freezer. The compound solution was added to a 96-well plate using HPD300. The plate was incubated in a CO2 incubator for a total of 6 days.
CellTiter-Glo buffer was melted at room temperature. The lyophilized CellTiter-Glo substrate was equilibrated to room temperature. CellTiter-Glo buffer was added to the CellTiter Glo substrate and mixed thoroughly. A cell plate was taken out and equilibrated to room temperature. 100 μL of mixed CellTiter Glo reagent was added to each well, and the mixture was shaken in the dark for 10 minutes, followed by incubation for 20 minutes. The culture plate was placed into an Enspire reading plate, and the luminescence reading results were recorded. […] A pharmacodynamic inhibition rate curve was plotted by using XLFit, and the IC50 value was calculated. The 4-parameter model [fit=(A+((B−A)/(1+((C/x)^D)))] was used.

Another series has as its target PARP1 (Homo sapiens (Human), UniProt P09874). The series can be described thus: PARP1 enzymatic activity assay. The class given is biochemical. To be noted: for pIC50: final PARP1 0.02 nM, DNA 0.8 nM, NAD+ 3.5 μM, 60 minutes; for PARP1/PARP2 inhibition Selectivity multiple N (N = IC50 (PARP2)/IC50 (PARP1)): ratio IC50 (PARP2)/IC50 (PARP1). How it is done:
2) After the coating was completed, the coating buffer was discarded.
After washing, the blocking buffer was discarded.
4) 1000× compound was prepared. 1 μL of compound was transferred to a 96-well plate containing 199 μL of reaction buffer (50 mM Tris-HCl (pH 7.5), 0.005% Tween-20, 0.01% BSA) and mixed well.
5) 25/10×PARP1-DNA solution was prepared with reaction buffer.
6) 25/10×NAD+ solution was prepared with reaction buffer.
8) Primary antibody was 2000-fold diluted with the blocking buffer. 20 μL of primary antibody was added to the reaction plate, which was incubated at room temperature for 1.5 hours.
9) The primary antibody was discarded.
10) Secondary antibody was 2000-fold diluted with the blocking buffer.
11) The secondary antibody was discarded.
The chemiluminescence value RLU was read with Envision.

For the next series, the target named is PARP2 (Homo sapiens (Human), UniProt Q9UGN5). The series can be described thus: PARP2 enzymatic activity assay. The class given is biochemical. To be noted: Biotin-NAD+ 2 μM, 60 minutes.
PARP2, sequence (Q9UGN5 whole entry): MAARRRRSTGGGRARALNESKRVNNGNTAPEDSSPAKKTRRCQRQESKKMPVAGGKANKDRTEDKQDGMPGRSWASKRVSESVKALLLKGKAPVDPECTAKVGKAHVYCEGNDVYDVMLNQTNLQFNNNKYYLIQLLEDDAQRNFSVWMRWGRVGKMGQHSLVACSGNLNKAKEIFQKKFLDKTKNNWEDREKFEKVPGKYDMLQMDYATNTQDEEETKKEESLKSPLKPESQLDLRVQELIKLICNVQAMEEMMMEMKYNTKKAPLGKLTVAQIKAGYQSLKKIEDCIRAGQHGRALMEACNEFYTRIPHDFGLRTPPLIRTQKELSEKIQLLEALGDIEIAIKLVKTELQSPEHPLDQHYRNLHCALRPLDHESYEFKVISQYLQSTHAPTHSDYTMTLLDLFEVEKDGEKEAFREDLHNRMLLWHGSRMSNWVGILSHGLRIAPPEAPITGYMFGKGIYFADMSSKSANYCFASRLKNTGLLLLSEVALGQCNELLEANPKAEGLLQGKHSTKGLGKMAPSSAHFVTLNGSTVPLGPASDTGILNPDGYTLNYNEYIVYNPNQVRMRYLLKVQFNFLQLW
The mark [2] stands for this setting: Homo sapiens, MDA-MB-436, 144 h.

pIC50: −log10 of the molar value. Where two headings read alike, the source gives them in different places.

PARP1, sequence (P09874 whole entry): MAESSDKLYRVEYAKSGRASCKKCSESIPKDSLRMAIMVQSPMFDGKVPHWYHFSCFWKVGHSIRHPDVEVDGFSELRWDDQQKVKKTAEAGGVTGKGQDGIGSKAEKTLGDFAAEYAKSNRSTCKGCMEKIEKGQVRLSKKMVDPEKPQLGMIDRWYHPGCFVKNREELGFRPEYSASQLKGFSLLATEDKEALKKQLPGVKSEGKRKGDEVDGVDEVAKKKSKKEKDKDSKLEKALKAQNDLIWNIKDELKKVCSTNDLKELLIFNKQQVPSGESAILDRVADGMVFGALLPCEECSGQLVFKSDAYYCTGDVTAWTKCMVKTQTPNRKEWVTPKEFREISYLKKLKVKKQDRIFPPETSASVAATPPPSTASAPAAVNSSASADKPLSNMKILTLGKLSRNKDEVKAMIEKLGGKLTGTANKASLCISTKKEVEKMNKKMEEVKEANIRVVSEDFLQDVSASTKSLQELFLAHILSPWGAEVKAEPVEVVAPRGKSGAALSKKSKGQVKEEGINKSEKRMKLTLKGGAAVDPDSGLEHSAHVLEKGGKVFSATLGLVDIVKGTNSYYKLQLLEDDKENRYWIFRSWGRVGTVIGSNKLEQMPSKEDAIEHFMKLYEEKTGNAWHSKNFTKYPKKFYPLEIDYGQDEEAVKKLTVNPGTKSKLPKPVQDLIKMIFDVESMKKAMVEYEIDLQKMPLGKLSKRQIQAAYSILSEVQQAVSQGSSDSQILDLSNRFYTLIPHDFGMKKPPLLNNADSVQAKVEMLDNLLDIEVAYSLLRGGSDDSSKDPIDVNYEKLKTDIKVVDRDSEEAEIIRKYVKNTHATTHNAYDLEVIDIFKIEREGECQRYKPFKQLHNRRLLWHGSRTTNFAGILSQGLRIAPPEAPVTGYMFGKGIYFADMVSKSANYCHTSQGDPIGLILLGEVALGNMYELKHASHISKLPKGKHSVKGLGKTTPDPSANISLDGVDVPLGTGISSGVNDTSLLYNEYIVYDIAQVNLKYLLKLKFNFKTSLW

Turning to `CNC(=O)c1ccc(N2CCN(Cc3cnc4cc(C(F)(F)F)c(=O)[nH]c4c3)[C@H]3CC[C@H]32)cn1` [Example 30-2, N-methyl-5-((1R,6S)-5-((6-oxo-7-(trifluoromethyl)-5,6-dihydro-1,5-naphthyridin-3-yl)methyl)-2,5-diazabicyclo[4.2.0]octan-2-yl)picolinamide], in series [1], the “Clearance” value worked out at 1.62 mL/h/kg and the half-life was 47.6 h. Besides, the pIC50 in the series with MDA-MB-436 cells (setting [2]) was 9.00. In addition, at PARP1, the pIC50 was 8.92 and the “PARP1/PARP2 inhibition Selectivity multiple N (N = IC50 (PARP2)/IC50 (PARP1))” value is 39. On PARP2 (final PARP2 1.5 nM), this compound showed a pIC50 of 7.33.

As to `CNC(=O)c1ccc(N2CCN(Cc3cnc4c5c(c(=O)[nH]c4c3)CCC5)[C@H]3CC[C@H]32)cn1` [Example 12-2, N-methyl-5-[(1R,6S)-5-((6-oxo-5H,7H,8H,9H-cyclopenta[c][1,5]naphthyridin-3-yl)methyl)-2,5-diazabicyclo[4.2.0]octan-2-yl]pyridine-2-carboxamide], in series [1], the “Clearance” value amounted to 1.92 mL/h/kg and the half-life was 41.3 h. Also, the pIC50 with MDA-MB-436 cells (setting [2]) is 8.70. On PARP1, the pIC50 is 9.30 and the “PARP1/PARP2 inhibition Selectivity multiple N (N = IC50 (PARP2)/IC50 (PARP1))” value was 120. For the same compound, the pIC50 on PARP2 (final PARP2 1.5 nM) was 7.22.

Consider `CCc1cc2ncc(CN3CCN(c4ccc(C(=O)NC)nc4)CC3)cc2[nH]c1=O` [AZD5305, reference compound], for which, in series [1], the “Clearance” value was determined as 10.3 mL/h/kg and the half-life was 8.04 h.

As for `CCc1cc2nnc(CN3CCN(c4ccc(C(=O)NC)nc4)C4CC[C@@H]43)cc2[nH]c1=O` (stereo partly drawn) [Example 10-2], the pIC50 with MDA-MB-436 cells is 8.30; on PARP1 it was 9.05; at PARP2 (final PARP2 […]) it was 7.11. Further, the “PARP1/PARP2 inhibition Selectivity multiple N (N = IC50 (PARP2)/IC50 (PARP1))” value on PARP1 is reported as 85.

Take `CCc1cc2nnc(CN3CCN(c4ccc(C(=O)NC)nc4)C4CC[C@H]43)cc2[nH]c1=O` (stereo partly drawn) [Example 10]: the pIC50 with MDA-MB-436 cells (setting [2]) is 8.05; on PARP1, 9.00; at PARP2 (final PARP2 […]), 6.98. Besides, the “PARP1/PARP2 inhibition Selectivity multiple N (N = IC50 (PARP2)/IC50 (PARP1))” value at PARP1 was determined as 105.

As to `CCc1cc2ncc(CN3CCN(c4ccc(-c5nnc(C)[nH]5)nc4)[C@@H]4CC[C@@H]43)cc2[nH]c1=O` [Example 29-2], the pIC50 with MDA-MB-436 cells was 7.89; against PARP1, 9.15; on PARP2 (final PARP2 […]) it was 7.52. For the same compound, the “PARP1/PARP2 inhibition Selectivity multiple N (N = IC50 (PARP2)/IC50 (PARP1))” value on PARP1 came to 43.

Turning to `CCc1cc2ncc(CN3CCN(c4ccc(C(=O)NC)nc4)[C@@H]4CC[C@@H]43)cc2[nH]c1=O` [Example 2-2, 5-((1R,6S)-5-((7-ethyl-6-carbonyl-5,6-dihydro-1,5-naphthyridin-3-yl)methyl)-2,5-diazabicyclo[4.2.0]octan-2-yl)-N-methylpyridine-2-carboxamide], in series [1], the “Clearance” value came out at 1.74 mL/h/kg and the “Half-life t1/2” value was found to be 57.9 h. Further, in the series with MDA-MB-436 cells, the pIC50 is 9.00. For the same compound, at PARP1, the pIC50 is 9.22 and the “PARP1/PARP2 inhibition Selectivity multiple N (N = IC50 (PARP2)/IC50 (PARP1))” value is reported as 71. Besides, the pIC50 on PARP2 (final PARP2 […]) is 7.33.

As for `CNC(=O)c1ccc(N2CCN(Cc3cnc4c5c(c(=O)[nH]c4c3)OCCC5)[C@@H]3CC[C@@H]32)cn1` [Example 31-1, N-methyl-5-((1S,6R)-5-((6-oxo-6,8,9,10-tetrahydro-5H-pyrano[2,3-c][1,5]naphthyridin-3-yl)methyl)-2,5-diazabicyclo[4.2.0]octan-2-yl)picolinamide], the pIC50 was 8.52 in the series on MDA-MB-436 cells (setting [2]), 9.52 on PARP1 and 7.04 against PARP2 (final PARP2 1.5 nM). Further, the “PARP1/PARP2 inhibition Selectivity multiple N (N = IC50 (PARP2)/IC50 (PARP1))” value at PARP1 amounted to 303.
